According to ChEMBL document CHEMBL3817755, “Design, synthesis and biological evaluation of indazolepyrimidine based derivatives as anticancer agents with anti-angiogenic and antiproliferative activities” (Medchemcomm, 2016):

Columns and labels:
[1] = Antiangiogenic activity in human PC3 cells assessed as reduction in TGF-beta levels at […] +/- […] uM after 72 hrs by ELISA relative to control; assay type: functional, PC-3; set-up: scale not given: the % may be the effect or the level left
HUVEC = test: Antiproliferative activity against HUVEC after 72 hrs by AlamarBlue assay; details: Homo sapiens
[2] = Antiangiogenic activity in human PC3 cells assessed as reduction in IGF-1 levels at […] +/- […] uM after 72 hrs by ELISA relative to control; assay type: functional, PC-3; set-up: scale not given: the % may be the effect or the level left
[3] = Antiangiogenic activity in human PC3 cells assessed as reduction in TNF-alpha levels at […] +/- […] uM after 72 hrs by ELISA relative to control; assay type: functional, PC-3; set-up: scale not given: the % may be the effect or the level left
[4] = Antiangiogenic activity in human PC3 cells assessed as reduction in VEGF levels at […] +/- […] uM after 72 hrs by ELISA relative to control; assay type: functional, PC-3; set-up: scale not given: the % may be the effect or the level left
[5] = Antiangiogenic activity in human PC3 cells assessed as reduction in leptin levels at […] +/- […] uM after 72 hrs by ELISA relative to control; assay type: functional, PC-3; set-up: scale not given: the % may be the effect or the level left
[6] = Antiangiogenic activity in human PC3 cells assessed as reduction in FGF-beta levels at […] +/- […] uM after 72 hrs by ELISA relative to control; assay type: functional, PC-3; set-up: scale not given: the % may be the effect or the level left
[7] = Antiangiogenic activity in human PC3 cells assessed as reduction in EGF levels at […] +/- […] uM after 72 hrs by ELISA relative to control; assay type: functional, PC-3; set-up: scale not given: the % may be the effect or the level left
NCI-H322M = test: Growth inhibition of human NCI-H322M cells after 48 hrs by SRB assay; assay type: functional
Malme-3M = test: Growth inhibition of human MALME-3M cells after 48 hrs by SRB assay; assay type: functional
[8] = Growth inhibition of human UO31 cells after 48 hrs by SRB assay; assay type: functional; details: UO-31, 48 h
[9] = Growth inhibition of human IGROV1 cells after 48 hrs by SRB assay; assay type: functional; details: IGROV-1, 48 h
MDA-MB-231 = test: Growth inhibition of human MDA-MB-231 cells after 48 hrs by SRB assay; assay type: functional; details: MDA-MB-231, 48 h
SK-MEL-28 = test: Growth inhibition of human SK-MEL-28 cells after 48 hrs by SRB assay; assay type: functional; details: SK-MEL-28, 48 h, read-out: LC50 (the source's name)
[10] = Growth inhibition of human SF539 cells after 48 hrs by SRB assay; assay type: functional; details: SF-539, 48 h
[11] = Growth inhibition of human UACC62 cells after 48 hrs by SRB assay; assay type: functional; details: UACC-62, 48 h
SN12C = test: Growth inhibition of human SN12C cells after 48 hrs by SRB assay; assay type: functional
[12] = Growth inhibition of human SNB19 cells after 48 hrs by SRB assay; assay type: functional; details: SNB-19, 48 h
[13] = read-out: LC50 (the source's name)

## NS(=O)(=O)c1ccc(Nc2nccc(Nc3ccc4[nH]ncc4c3)n2)cc1
[1]
  Activity: 32.2%
HUVEC
  IC50: 1370 nM
[2]
  Activity: 39.5%
[3]
  Activity: 36%
[4]
  Activity: 37.6%
[5]
  Activity: 24.5%
[6]
  Activity: 28.4%
[7]
  Activity: 34.6%

## COc1ccc(Nc2nccc(Nc3ccc4[nH]ncc4c3)n2)cc1
NCI-H322M
  GI50: 4.48 µM
  TGI: 38.2 µM
NCI-H322M; [13]
  CC50: > 100 µM
Malme-3M
  GI50: 3.27 µM
  TGI: 15.9 µM
Malme-3M; [13]
  CC50: > 100 µM
[8]
  GI50: 2120 nM
  TGI: 11.4 µM
[8]; [13]
  CC50: 33.8 µM
[9]
  GI50: 3.36 µM
  TGI: 25.1 µM
[9]; [13]
  CC50: > 100 µM
MDA-MB-231
  GI50: 2690 nM
  TGI: 5.36 µM
MDA-MB-231; [13]
  CC50: > 100 µM
SK-MEL-28
  CC50: > 100 µM
[10]
  GI50: 4.38 µM
  TGI: 16.8 µM
[10]; [13]
  CC50: 51.3 µM
[11]
  GI50: 1930 nM
  TGI: 16.9 µM
[11]; [13]
  CC50: > 100 µM
SN12C
  GI50: 3.92 µM
  TGI: > 100 µM
SN12C; [13]
  CC50: > 100 µM
[12]
  GI50: 4.3 µM
  TGI: 87 µM
[12]; [13]
  CC50: > 100 µM
